Experimental findings from PubChem BioAssay (NCI) are described below.

Common to all, as to assay: DTP human tumour cell line panel, 48 h
For experiment [1], the system named is CCRF-CEM leukemia.
Experiment [2] relates to COLO 205 colon.
Experiment [3] deals with EKVX NSCLC.
The test system of experiment [4] is HOP-62 NSCLC.
In experiment [5] the test system is M14 melanoma.
Experiment [6] concerns NCI-H23 lung.
Experiment [7] deals with OVCAR-4 ovarian.
Experiment [8] concerns SF-268 CNS.
The subject of experiment [9] is SK-MEL-5 melanoma.
Experiment [10] deals with SNB-19 CNS.
Experiment [11] has as its system SNB-75 CNS.
Experiment [12] relates to UO-31 renal.
Experiment [13] deals with RPMI-8226 leukemia.

The structures appear in SMILES notation.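 Values below derive from 48-hour exposures of cells grown in 96-well plates, with endpoints linearly interpolated between the two concentrations bracketing the appropriate inhibition level. The concentration for full growth arrest is given as TGI.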

For `CCS(=O)(=O)CCn1cnc2c1c(=O)n(C)c(=O)n2C`, the total growth inhibition concentration (TGI) in experiment [1], in experiment [2], in experiment [3], in experiment [4], in [5] and in [6] was over 100 µM throughout. In addition, the TGI in [7], in [8], in experiment [9], in [10], in experiment [11] and in experiment [12] was over 100 µM each time.
Take `Nc1nc(Cl)c2nnn(CC3CCC(CO)C3)c2n1` (stereo unspecified): the TGI in experiment [1], in [2], in experiment [3], in experiment [4], in experiment [5] and in experiment [7] was over 100 µM in each case. In addition, the TGI in experiment [13], in [8], in experiment [9], in [10], in [11] and in experiment [12] was over 100 µM each time.
Regarding `NNc1[nH]c(=S)[nH]c1C(N)=O`, the concentration for total growth inhibition (TGI) in experiment [1], in experiment [2], in experiment [3], in [4], in [5] and in experiment [7] was over 100 µM each time. The TGI in experiment [13], in experiment [8], in [9], in [11] and in [12] was over 100 µM each time.
Regarding `O=C(c1ccccc1)c1sc2c(=O)c(C(=O)c3ccccc3)c(C(=O)c3ccccc3)sc2c(=O)c1C(=O)c1ccccc1`, the TGI in experiment [1], in experiment [2], in experiment [3], in [4], in experiment [5] and in experiment [6] was over 100 µM each time. Besides, the TGI in [7] was over 100 µM; in experiment [8], over 100 µM; in [9] it was over 100 µM; in experiment [10], over 100 µM; in [11], 68 µM; in experiment [12], 22.6 µM.
Consider `[N-]=[N+]=NC(CBr)c1cn([C@H]2C[C@H](O)[C@@H](CO)O2)c(=O)[nH]c1=O` (stereo partly specified), for which the TGI in experiment [1], in experiment [2], in [3], in experiment [4], in experiment [5] and in experiment [6] was over 100 µM throughout. Moreover, the TGI in experiment [13], in [9], in [10], in experiment [11] and in [12] was over 100 µM throughout.
With `CC(=O)OC1CC[C@]2(C)C3CC[C@@]4(C)C(CCC4[C@H](C)CCCC(C)C)[C@@H]3CCC2(Br)C1` (stereo partly specified), the TGI in experiment [1] is 27.3 µM; in [2] it was 20.9 µM; in [3], over 50 µM; in experiment [4] it was over 50 µM; in [5], over 50 µM; in experiment [6], 36.5 µM. Moreover, the TGI in experiment [7] was 24 µM; in [8] it was 28.1 µM; in experiment [10], over 50 µM; in [11], over 50 µM; in experiment [12], 24.6 µM.
`COC(=O)c1ccccc1/C=C1\Cc2cc(C)c(C)cc2C1=O`: the TGI in experiment [1] was over 100 µM; in experiment [2] it was over 100 µM; in experiment [3], over 100 µM; in [4], 85.8 µM; in [5] it was over 100 µM; in experiment [7], over 100 µM. Besides, the TGI in experiment [13] was over 100 µM; in experiment [8], over 100 µM; in [9], over 100 µM; in experiment [10], over 100 µM; in experiment [11] it was 81.3 µM; in experiment [12], over 100 µM.
As for `Cc1ccc(/C=C/C(=O)c2cc(CN(C)C)c(O)c(CN(C)C)c2)cc1`, the TGI in experiment [1] is over 100 µM; in experiment [2], 22.5 µM; in experiment [3] it was over 100 µM; in experiment [4], 37.5 µM; in experiment [5], 39.1 µM; in experiment [6] it was over 100 µM. Besides, the TGI in experiment [13] was 48.3 µM; in experiment [8], over 100 µM; in experiment [9] it was 30.6 µM; in experiment [11] it was 88.9 µM; in experiment [12], 60 µM.
Turning to `COc1c(O)c2c(=O)cc(OC)c3c4c(OC)cc(=O)c5c(O)c(OC)c6c(c(c1C(C(C)=O)C6C(C)O)c23)c54` (stereo unspecified), the TGI in [1] was determined as 1.16 µM; in experiment [3], 4.55 µM; in experiment [4], 0.632 µM; in experiment [6], 1.33 µM; in experiment [13] it was 1.28 µM; in [8], 3.92 µM. In addition, the concentration for total growth inhibition (TGI) in [10] is 0.413 µM; in experiment [11] it was 1.42 µM; in experiment [12], 1.03 µM.
